According to ChEMBL document CHEMBL5728358, “JAK1 selective inhibitors” (2021):
pIC50: −log10 of the molar value.

Target: Tyrosine-protein kinase JAK1 (Homo sapiens, UniProt P23458)
Test: JAK enzyme was expressed as N-terminal GST fusion in insect cells and purified by glutathione-affinity and size-exclusion chromatographies. […] Phosphorylated and unphosphotylated peptides were separated and quantified by a Caliper LC3000 system (Caliper Life Sciences, MA) for calculating percent inhibition.
Assay type: organism-based

Tyrosine-protein kinase JAK1, sequence (P23458 whole entry, the tested form may be a part): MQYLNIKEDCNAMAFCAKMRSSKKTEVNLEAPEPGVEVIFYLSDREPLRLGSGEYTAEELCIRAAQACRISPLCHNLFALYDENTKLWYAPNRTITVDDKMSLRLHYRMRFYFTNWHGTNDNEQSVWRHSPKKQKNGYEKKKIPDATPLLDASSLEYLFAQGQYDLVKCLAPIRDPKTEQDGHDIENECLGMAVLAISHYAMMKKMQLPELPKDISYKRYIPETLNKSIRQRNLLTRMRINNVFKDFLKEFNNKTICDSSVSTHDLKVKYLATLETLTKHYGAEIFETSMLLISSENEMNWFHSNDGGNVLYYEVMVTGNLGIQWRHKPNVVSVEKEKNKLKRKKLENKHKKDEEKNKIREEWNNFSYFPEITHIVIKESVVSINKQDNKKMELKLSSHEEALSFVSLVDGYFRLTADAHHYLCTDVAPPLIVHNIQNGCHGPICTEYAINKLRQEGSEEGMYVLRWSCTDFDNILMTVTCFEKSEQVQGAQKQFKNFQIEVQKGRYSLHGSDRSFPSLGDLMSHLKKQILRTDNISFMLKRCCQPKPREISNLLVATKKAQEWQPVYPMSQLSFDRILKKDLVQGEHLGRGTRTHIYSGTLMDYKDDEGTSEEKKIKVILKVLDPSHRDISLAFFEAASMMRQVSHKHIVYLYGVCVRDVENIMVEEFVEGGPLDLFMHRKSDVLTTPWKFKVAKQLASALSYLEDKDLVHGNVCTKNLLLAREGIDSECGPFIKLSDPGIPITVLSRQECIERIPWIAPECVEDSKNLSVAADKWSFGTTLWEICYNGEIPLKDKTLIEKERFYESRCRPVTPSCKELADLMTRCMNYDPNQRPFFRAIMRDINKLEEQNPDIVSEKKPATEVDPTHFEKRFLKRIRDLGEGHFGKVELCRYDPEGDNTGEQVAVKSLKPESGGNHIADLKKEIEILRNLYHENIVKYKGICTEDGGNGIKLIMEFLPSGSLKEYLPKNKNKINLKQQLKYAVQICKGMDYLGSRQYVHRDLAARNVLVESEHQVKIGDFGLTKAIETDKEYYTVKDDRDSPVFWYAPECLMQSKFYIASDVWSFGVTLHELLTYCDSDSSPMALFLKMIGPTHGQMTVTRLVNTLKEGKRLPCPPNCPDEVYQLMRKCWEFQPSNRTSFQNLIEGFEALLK

- pIC50: 8.47
SMILES: Cc1cnc(Nc2cccc(S(C)(=O)=O)c2F)nc1-c1c[nH]c2c(NC(=O)[C@@H](C)N3C[C@H](C)N[C@@H](C)C3)cccc12
